Laboratory results: patent publication US4504470A, “Pharmaceutical preparations containing TRH or its analogue” (Takeda Chemical Industries, Ltd., priority 1981, dated 1985)
Where two headings read alike, the source gives them in different places.

Legend:
[1] = Absorption of DN-1417 (14C-DN-1417) administered by various routes to rats, plasma AUC; format: in vivo; conditions: for bioavailability as compared with subcutaneous application: no absorption enhancer, 2 mg/kg
Procedure: Male rats of SD strain weighing ca. 300 g, which had been fasted for 24 hours, were dosed with an amount of ^14 C-DN-1417 corresponding to 2 mg/kg of DN-1417 by the rectal, nasal, oral cavity and oral routes. The dosage form for nasal, oral cavity or oral administration was either an aqueous solution or an oil solution, and for nasal administration, 0.02 ml of the solution was given with a micropipette; for oral cavity application, a wad of cotton soaked with 0.02 ml of the solution was sublingually administered; and for oral administration, 1 ml of the solution was given by gavage. For rectal administration, 0.1 ml of an aqueous solution was given using a pipette. In the case of a polyethylene glycol suppository and Witepsol W-35 (Dynamit Nobel Chemicals, West Germany) suppository, 50 mg of either suppository was deposited 1.5 cm from the anus.
After administration, 0.2 ml of blood was taken from the cordal vein at timed intervals and the plasma radioactivity was measured with a scintillation counter. Separation of the unmetabolized compound from metabolites was performed by thin-layer electrophoresis. For the evaluation of absorption rates, the area under a curve of the plasma concentration of DN-1417 over a period of 6 hours after administration [AUC (0-6 hr.)] was compared with the corresponding value obtained by subcutaneous administration to calculate the bioavailability of the drug.

[2] = set-up: species or system rats; conditions: rat, in vivo; for AUC (0-2 hr.): po, 2 mg/kg
Procedure: Using male SD-strain rats weighing ca. 300 g which had been fasted for 24 hours in groups of 3 animals, an amount of ^3 H-TRH equivalent to 2 mg/kg of TRH was administered by the rectal, nasal and oral routes.
The method and volume of administration, the method of collecting blood samples and the method of determination were all the same as described in Experimental Example 1. Evaluation of absorption ratio was made using as a parameter the plasma level of TRH.

SMILES	effect on absorption ([1]; addition of a hydroxycarboxylic acid)	effect on absorption ([1]; addition of amino acids, lecithin, etc.)	bioavailability as compared with subcutaneous application ([1]; nasal)	bioavailability as compared with subcutaneous application ([1]; rectal)	absorption from the rectal and nasal mucosa [2]	AUC (0-2 hr.) ([2]; pH 2.1)	AUC (0-2 hr.) ([2]; pH 3.2)
NC(=O)[C@@H]1CCCN1C(=O)[C@H](Cc1c[nH]cn1)NC(=O)C1CCC(=O)O1 (stereo partly drawn) [DN-1417, γ-butyrolactone-γ-carbonyl-L-histidyl-L-prolinamide]	remarkable improvement in absorption	does not result in any significant improvement of absorption	21%	25%	–	–	–
NC(=O)[C@@H]1CCCN1C(=O)[C@H](Cc1cnc[nH]1)NC(=O)[C@@H]1CCC(=O)N1 [TRH, L-pyroglutamyl-L-histidyl-L-prolinamide]	–	–	–	–	enhanced	1100 ng·h/mL	700 ng·h/mL
